Data from paper PMC8339067 (NPJ Breast Cancer, 2021).
Read-outs that look alike come from different tables or passages of the source.

Tests used:
[1] = cited from earlier work
[2] = rats, single dose of the conjugate with trastuzumab, radiolabeled; cited from earlier work
[3] = Ribociclib plasma pharmacokinetics with T-DM1 (LC-MS/MS, noncompartmental); format: in vivo, human; details: for AUC: read-out: AUC24
Text: Additional samples were collected according to this same schedule after the drug was taken for at least 8 days consecutive without interruption to define its steady-state pharmacokinetics. […] The assay was validated and applied to the analysis of study samples according to the recommendations in the current U.S. Food and Drug Administration Guidance for Industry on Bioanalytical Method Validation (https://www.fda.gov/drugs/-guidance-compliance-regulatory-information/guidances-drugs). […] Actual time points were calculated as the difference between the blood sample collection time and the time that the drug was taken. The plasma concentration-time data were analyzed by noncompartmental methods using model 200 for extravascular drug input in WinNonlin Professional version 5.0.1 (Pharsight Corp, Mountain View, CA). The area under the plasma concentration-time curve from the time of dosing to the time of the last sample collected prior to administration of the next dose (AUC24) was estimated using the linear-log trapezoidal method. Total oral clearance (CL/F) was calculated as the dose divided by the AUC24 for the dose given on days 19–21. Pharmacokinetic parameters are reported as the geometric mean (geometric CV%) of the values for individual patients at each dose level. GraphPad Prism for Windows, version 8.4.3 (GraphPad Software, La Jolla, CA) was used for the statistical analysis and graphical presentation of the pharmacokinetic data.

[4] = single agent, cited from earlier work
[5] = 300 mg, dose no. 11-12 (steady state), 3 patients, geometric mean
[6] = 400 mg, dose no. 13 (steady state), 1 patient
[7] = 500 mg, dose no. 12 (steady state), 2 patients, geometric mean
[8] = 600 mg, dose no. 13 (steady state), 1 patient

Which Half-life [1] does the source give for `COc1cc2cc(c1Cl)N(C)C(=O)C[C@H](OC(=O)[C@H](C)N(C)C(=O)CCS)[C@]1(C)O[C@H]1[C@H](C)[C@@H]1C[C@@](O)(NC(=O)O1)[C@H](OC)/C=C/C=C(\C)C2` [DM1] here?
The Half-life was “approximately 4 days”.

What about the “Time to complete clearance” value [2] of the same molecule?
Its value is no more than 5 days.

With `CN(C)C(=O)c1cc2cnc(Nc3ccc(N4CCNCC4)cn3)nc2n1C1CCCC1` [ribociclib] as the molecule, how does the Cmin ([3]; 300 mg, dose no. 1, 3 patients, geometric mean, lowest calibration concentration 1.0 ng/mL) read?
Its Cmin is “< LLQ”.

And the CL/F [3, 5]?
Its CL/F is 38.6 L/h.

What about the Cmin [3, 5] of the same molecule?
The Cmin was 141.7 ng/mL.

And the Cmin ([3]; 400 mg, dose no. 1, 3 patients, geometric mean, lowest calibration concentration 1.0 ng/mL)?
The Cmin was “< LLQ”.

What about the CL/F [3, 6] of the same molecule?
Its CL/F is 47.4 L/h.

And the Cmin [3, 6]?
The Cmin was 125.6 ng/mL.

What about the Cmin ([3]; 500 mg, dose no. 1, 3 patients, geometric mean, lowest calibration concentration 1.0 ng/mL) of the same molecule?
Its Cmin is “< LLQ”.

And the AUC24 [3, 7]?
The AUC24 was 8,958 ng•h/mL.

What about the CL/F [3, 7] of the same molecule?
The CL/F was 55.8 L/h.

What about the Cmax [3, 7] of the same molecule?
Its Cmax is 702.8 ng/mL.

And the Cmin [3, 7]?
Its Cmin is 178.7 ng/mL.

And the Cmin ([3]; 600 mg, dose no. 1, 3 patients, geometric mean, lowest calibration concentration 1.0 ng/mL)?
Its Cmin is “< LLQ”.

What about the CL/F [3, 8] of the same molecule?
Its CL/F is 27.3 L/h.

What about the Cmin [3, 8] of the same molecule?
Its Cmin is 493.9 ng/mL.

What about the “Overall geometric mean apparent oral clearance” value ([3]; from AUC24 at steady state, 7 patients, CV 28.1%) of the same molecule?
Its value is 42.1 L/h.

What about the AUC ([3]; human, plasma, oral, 300 mg, dose no. 1, 3 patients, geometric mean) of the same molecule?
The AUC was 5330 ng·h/mL.

What about the Cmax ([3]; human, plasma, oral, 300 mg, dose no. 1, 3 patients, geometric mean, read-out: Cmax) of the same molecule?
Its Cmax is 505 ng/mL.

What about the AUC ([3]; human, plasma, oral, 300 mg, dose no. 11-12 (steady state), 3 patients, geometric mean) of the same molecule?
The AUC was 7770 ng·h/mL.

And the Cmax ([3]; human, plasma, oral, 300 mg, dose no. 11-12 (steady state), 3 patients, geometric mean, read-out: Cmax)?
The Cmax was 608 ng/mL.

What about the AUC ([3]; human, plasma, oral, 400 mg, dose no. 1, 3 patients, geometric mean) of the same molecule?
Its AUC is 7980 ng·h/mL.

What about the Cmax ([3]; human, plasma, oral, 400 mg, dose no. 1, 3 patients, geometric mean, read-out: Cmax) of the same molecule?
The Cmax was 735 ng/mL.

And the AUC ([3]; human, plasma, oral, 400 mg, dose no. 13 (steady state), 1 patient)?
The AUC was 8430 ng·h/mL.

And the Cmax ([3]; human, plasma, oral, 400 mg, dose no. 13 (steady state), 1 patient, read-out: Cmax)?
Its Cmax is 871 ng/mL.

What about the AUC ([3]; human, plasma, oral, 500 mg, dose no. 1, 3 patients, geometric mean) of the same molecule?
Its AUC is 4830 ng·h/mL.

And the AUC ([3]; human, plasma, oral, 600 mg, dose no. 1, 3 patients, geometric mean)?
Its AUC is 11800 ng·h/mL.

And the Cmax ([3]; human, plasma, oral, 600 mg, dose no. 1, 3 patients, geometric mean, read-out: Cmax)?
Its Cmax is 1270 ng/mL.

What about the AUC ([3]; human, plasma, oral, 600 mg, dose no. 13 (steady state), 1 patient) of the same molecule?
Its AUC is 22000 ng·h/mL.

What about the Cmax ([3]; human, plasma, oral, 600 mg, dose no. 13 (steady state), 1 patient, read-out: Cmax) of the same molecule?
The Cmax was 1740 ng/mL.

What about the “Apparent oral clearance greater than with single agent” value ([3]; present trial versus single-agent 400 and 600 mg QD) of the same molecule?
The value was 19–65%.

And the “Geometric mean apparent oral clearance” value ([4]; 400 mg QD, four patients, CV 59.2%)?
The value was 35.3 L/h.

And the “Geometric mean apparent oral clearance” value ([4]; 600 mg QD, 53 patients, CV 65.7%)?
Its value is 25.5 L/h.
